For 18 compounds, GI50 and TGI results are on record in PubChem BioAssay (NCI).

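Assay format: 96-well plates, 48-hour exposure. GI50 is the concentration that inhibits growth by half. TGI marks complete inhibition of growth.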 Some results are limits rather than exact numbers.

Assay in all cases: NCI tumour cell line growth inhibition, 48 h
For assay [1], the system named is ACHN renal.
Assay [2] has as its system MDA-MB-231 breast.
For assay [3], the system named is SNB-19 CNS.
Assay [4] has as its system NCI-H522 lung.
The subject of assay [5] is SNB-75 CNS.
Assay [6] concerns BT-549 breast.
For assay [7], the system named is OVCAR-8 ovarian.
In assay [8] the test system is U251 CNS.
The subject of assay [9] is RPMI-8226 leukemia.
Assay [10] deals with UO-31 renal.

With `COc1ccc(/C=C\c2cc(OC)c(OC)c(OC)c2)cc1NC(=O)[C@@H](N)CO`, the GI50 in assay [1] is 0.0268 µM; in [2], 0.0215 µM; in assay [3] it was 0.0433 µM; in [4], below 0.01 µM; in assay [5], below 0.0128 µM; in assay [6], below 0.0139 µM. Also, the GI50 in assay [7] was 0.0328 µM; in assay [8] it was 0.0165 µM; in [9], 0.0276 µM; in [10], 0.0486 µM. The TGI in assay [1] is above 100 µM; in assay [2] it was above 100 µM; in [3] it was above 100 µM; in assay [4], 0.0457 µM; in assay [5], above 66.7 µM; in assay [6], 0.085 µM. The TGI in assay [7] was above 100 µM; in assay [8] it was above 100 µM; in assay [9] it was 20.8 µM; in assay [10], above 69.7 µM.

As to `N#Cc1c2ccccc2c2nnc3cc(C(F)(F)F)ccc3n12`, the GI50 in [1] is 25.7 µM; in assay [3], above 100 µM; in assay [5] it was above 100 µM; in assay [6], 57.2 µM; in assay [7], 68.6 µM; in assay [8], 51.2 µM. In addition, the GI50 in [9] was 55.1 µM; in [10], 70.3 µM. Moreover, the TGI in assay [1], in assay [3], in [5], in [6], in assay [7] and in assay [8] was above 100 µM throughout. The TGI in [9] and in assay [10] was above 100 µM throughout.

Consider `COc1ccc(/C=C(\C#N)n2nnc3cc(Cl)ccc32)cc1`, for which the GI50 is 0.593 µM in assay [1]; 1.09 µM in assay [2]; 1.12 µM in [3]; 0.18 µM in assay [4]; 0.193 µM in [5]; 1.13 µM in assay [6]. Also, the GI50 was 0.751 µM in [7], 0.63 µM in assay [8], 0.694 µM in assay [9] and 2.2 µM in assay [10]. For the same compound, the TGI in assay [1] is above 43.5 µM; in assay [2], 10.2 µM; in assay [3], above 41.4 µM; in [4], 0.704 µM; in assay [5], 0.983 µM; in [6], above 100 µM. The TGI in assay [7] was above 100 µM; in assay [8], 9.53 µM; in assay [9], above 100 µM; in assay [10] it was 32.4 µM.

In the case of `C=C1C(=O)OC2C1C(OC(=O)/C(C)=C/C)CC(O)(CCl)C1C(OC(C)=O)C=C(C)C21O` (stereo not drawn), the TGI in assay [1] is 22.7 µM; in assay [2] it was 38.1 µM; in assay [3], above 58.9 µM; in assay [4] it was 5.94 µM; in assay [5] it was 64.6 µM; in assay [6] it was 22.8 µM. Further, the TGI in assay [7] is 26.5 µM; in assay [8] it was 41.2 µM; in assay [9], 31.3 µM; in [10] it was 35 µM.

On to `CCN(Cc1ccc(F)cc1F)c1ccc(CO)c(Cl)c1`, for which the GI50 in assay [1] was 14.1 µM; in [2], 12.1 µM; in assay [3], 19.9 µM; in [4], 14.8 µM; in assay [5] it was 12.8 µM; in [6], 14.3 µM. Also, the GI50 in assay [7] was 12.9 µM; in assay [8], 0.641 µM; in assay [9], 2.96 µM; in [10] it was 4.52 µM. Besides, the TGI in assay [1] was 38.3 µM; in [2], 25.5 µM; in assay [3] it was 68.8 µM; in assay [4] it was 37.6 µM; in assay [5], 45.3 µM; in [6] it was 34.8 µM. Further, the TGI in [7] came to 41.3 µM; in [8], 18.8 µM; in assay [9] it was 32 µM; in assay [10], 43.8 µM.

For the compound `CC(=O)C(C(=N)C#N)C(=O)Nc1ccccc1` (stereo not drawn), the TGI in assay [1], in assay [2], in assay [3], in assay [4], in assay [5] and in assay [6] was above 100 µM each time. In addition, the TGI in assay [7], in assay [8] and in [9] was above 100 µM each time.

As to `C=C1C(=O)O[C@H]2[C@H]1CC/C(COC(=O)/C=C/c1cccnc1)=C\CC[C@@]1(C)O[C@@H]21`, the GI50 is 2 µM in [2]; 9.05 µM in [3]; 1.33 µM in [4]; 11.3 µM in assay [5]; 1.18 µM in assay [6]; 3.85 µM in assay [7]. The values for the GI50 in assay [8], in assay [9] and in assay [10] were 5.74 µM, 1.9 µM and 1.11 µM, respectively. In addition, the TGI was determined as 5.04 µM in assay [2]; 28.4 µM in assay [3]; 3.48 µM in assay [4]; 24.1 µM in assay [5]; 2.68 µM in assay [6]; 13.9 µM in assay [7]. Also, the TGI was determined as 18.3 µM in assay [8], 6.15 µM in assay [9] and 2.51 µM in assay [10].

On to `C=C(CN1CCc2ccccc2C1)c1ccc(/C=C/C(=O)Nc2ccccc2N)cc1`, for which the GI50 in assay [1] was 5.4 µM; in [2] it was 4.36 µM; in assay [3] it was 26.6 µM; in assay [4] it was 0.783 µM; in assay [6], 10.3 µM; in assay [7], 5.86 µM. Also, the figures for the GI50 in assay [8], in assay [9] and in assay [10] were 3.42 µM, 2.92 µM and 0.437 µM, respectively. The TGI is above 100 µM in [1]; 48.3 µM in assay [2]; above 100 µM in [3]; 14.7 µM in assay [4]; above 100 µM in [6]; above 100 µM in assay [7]. Further, the TGI was 27.8 µM in [8], 13.4 µM in assay [9] and above 100 µM in assay [10].

Turning to `CN(C)CCCNC(=O)c1cc(NC(=O)c2cc(NC(=O)CCCN3c4ccccc4C=Cc4ccccc43)cn2C)cn1C`, the GI50 in assay [1] was 14.7 µM; in assay [2] it was 4.04 µM; in assay [3], 6.32 µM; in [4] it was 4.11 µM; in assay [5], 13.6 µM; in assay [6], 4.19 µM. Also, the GI50 is 17.3 µM in [7], 2.29 µM in assay [9] and 23.5 µM in assay [10]. Further, the TGI in assay [1] was 33.6 µM; in assay [2] it was 96 µM; in assay [3], above 100 µM; in [4] it was 19.8 µM; in assay [5], 62.9 µM; in [6], 69.8 µM. For the same compound, the figures for the TGI in assay [7], in assay [9] and in [10] were 72.2 µM, 6.21 µM and 59.7 µM, respectively.

On to `CCN(CC)c1ccc2[nH]c3c(C(N)=O)cc(=O)c(=O)c=3oc2c1`, for which the GI50 in assay [1] was 1.84 µM; in [2], 2.9 µM; in assay [3], 2.68 µM; in assay [5], 2.04 µM; in [6], 1.7 µM; in assay [7], 2.05 µM. For the same compound, the GI50 in [8] was 0.912 µM; in [9], 0.383 µM; in assay [10] it was 1.07 µM. Besides, the TGI in assay [1] is above 100 µM; in assay [2], above 100 µM; in assay [3], 24.5 µM; in [5], 8.59 µM; in assay [6], 5.17 µM; in [7], above 100 µM. In addition, the figures for the TGI in [8], in [9] and in assay [10] were 5.75 µM, 4.7 µM and 4.12 µM, respectively.

Consider `CCOC(=O)c1[nH]c2cccc3c2c1CC(Br)C3=O` (stereo not drawn), for which the TGI in [1] was found to be 20.2 µM; in [2], 33.6 µM; in [3], 30.7 µM; in assay [6], 32.1 µM; in assay [7] it was 41.5 µM; in [8] it was 30.1 µM. In addition, the values for the TGI in assay [9] and in assay [10] were 26.7 µM and 19.2 µM, respectively.

Regarding `Cc1c(C(=O)N/N=C/c2ccc(O)cc2)nnn1-c1ccnc2c(C(F)(F)F)cccc12`, the GI50 was 41.1 µM in assay [1]; 12.7 µM in assay [2]; 23.5 µM in assay [3]; 49.9 µM in assay [4]; 19.1 µM in assay [5]; 41.6 µM in assay [6]. Besides, the values for the GI50 in assay [7], in [9] and in [10] were 21.5 µM, above 100 µM and above 100 µM, respectively. Moreover, the TGI in assay [1] is above 100 µM; in [2], 48.4 µM; in assay [3], 76.7 µM; in assay [4] it was above 100 µM; in assay [5], 40 µM; in assay [6], above 100 µM. Further, the TGI in assay [7], in assay [9] and in assay [10] was above 100 µM in each case.

In the case of `O=C(Oc1cccc(Nc2ncnc3ccccc23)c1)c1ccccc1Cl`, the GI50 was 23.1 µM in [1]; 14.3 µM in assay [2]; 52.7 µM in assay [3]; 7.23 µM in assay [4]; 24.8 µM in assay [6]; 20.2 µM in assay [7]. Moreover, the GI50 in assay [8] is 25.4 µM; in [10] it was 36.4 µM. Moreover, the TGI in assay [1] is 62 µM; in assay [2] it was 36 µM; in assay [3], above 100 µM; in assay [4], 26.8 µM; in [6], 62.3 µM; in assay [7] it was 59.1 µM. Moreover, the values for the TGI in assay [8] and in assay [10] were 63.5 µM and above 100 µM, respectively.

On to `c1ccc(Oc2c3ccccc3nc3ccccc23)cc1`, for which the GI50 in assay [1] is 3.61 µM; in assay [2], 3.08 µM; in [3] it was 5.35 µM; in [4], 2.22 µM; in assay [5], 3.49 µM; in assay [7] it was 6.22 µM. In addition, the GI50 in assay [8] is 3.26 µM; in [9], 4.75 µM; in [10], 5.64 µM. In addition, the TGI in assay [1] turned out to be 13.7 µM; in assay [2], 9.82 µM; in assay [3], 18 µM; in assay [4], 10.7 µM; in assay [5] it was 14.2 µM; in [7], 24.8 µM. Also, the TGI in assay [8] stood at 11 µM; in [9], 24.6 µM; in assay [10], 19.1 µM.

On to `Cc1ccc(C)c(-n2c(-c3ccc(Br)cc3)csc2=NC(=O)c2ccccc2F)c1`, for which the GI50 in assay [2], in assay [3], in assay [5], in [6], in [7] and in [8] was above 100 µM each time. Moreover, the GI50 in [10] was above 100 µM. Besides, the TGI in assay [2], in [3], in assay [5], in assay [6], in assay [7] and in [8] was above 100 µM throughout. In assay [10], the TGI was above 100 µM.

Turning to `COc1cccc2c(Nc3ccc(C(=O)NCCNCCO)cc3)cc(-c3ccccc3)nc12`, the GI50 in assay [2] was 25.5 µM; in [4] it was 20.3 µM; in [6] it was 37.3 µM; in assay [7], 42.2 µM; in assay [8], 5.89 µM; in [9], 24.5 µM. The GI50 in assay [10] is above 100 µM. Further, the TGI in assay [2] was 73.5 µM; in assay [4] it was 53.8 µM; in assay [5], 34.9 µM; in assay [6], above 100 µM; in assay [7], above 100 µM; in assay [8], 24.9 µM. The TGI in assay [9] is 60.3 µM; in [10] it was above 100 µM.

Turning to `O=C1CC2(CCCc3sccc32)C(=O)N1` (stereo not drawn), the TGI in assay [1], in [2], in [3], in assay [4], in assay [5] and in assay [7] was above 100 µM each time. Moreover, the TGI in [8], in assay [9] and in [10] was above 100 µM each time.

As for `COc1ccc(-c2nc3sccn3c2/C=C/C(=O)c2cc(OC)c(OC)c(OC)c2)cc1OC`, the GI50 was 3.24 µM in assay [1]; 2.87 µM in assay [2]; 2.45 µM in [3]; 1.3 µM in assay [4]; 1.99 µM in [5]; 2.43 µM in assay [6]. Further, the GI50 in [7] is 2.47 µM; in [9], 1.19 µM; in assay [10], 0.639 µM. The TGI is above 100 µM in assay [1]; 27.7 µM in assay [2]; 6.3 µM in assay [3]; 3.77 µM in [4]; 5.43 µM in [5]; 7.95 µM in assay [6]. Also, the TGI stood at 7.15 µM in assay [7], 4.95 µM in assay [9] and 8.19 µM in [10].
